Like-named read-outs stand apart in the source and are kept apart here.
Legend:
DAT = DAT (Homo sapiens, UniProt Q01959); experiment: MDS LeadProfilingScreen, DAT; type: binding
NMRI mice = experiment: Mouse forced swim test (mFST); type: in vivo
Protocol: Compound (I) was tested in two of the most widely used behavioural screens for predicting antidepressant effects in the clinic: the mouse forced swim test (mFST) and mouse tail suspension test (mTST).
In order to further characterize the role played by 5-HT and DA-ergic neurotransmission in the antidepressant-like effects of compound (I), the potential involvement of 5-HT1A and D1 receptors was investigated in the mFST.

[1] = Metabolic stability in liver microsomes, mouse; type: in vitro ADME
Protocol: (§1) The metabolic stability of compound (I) was tested in liver microsomes from all in house available species at 1 and 5 μM. One metabolite of 16 mass units higher than parent, was found in all incubations, except with human liver microsomes.

5-HT transporter = 5-HT transporter (Rattus norvegicus, UniProt P31652); experiment: ^3H-uptake rat, 5-HT transporter; type: biochemical
Source text: Compound (I) has been characterized as a monoamine reuptake inhibitor, based on the profile in a series of functional assays (Table 2).

Sigma σ1 = Sigma σ1 (Homo sapiens, UniProt Q99720); experiment: MDS LeadProfilingScreen, Sigma σ1; type: binding
Nicotinic α3β4 = Nicotinic α3β4 (Homo sapiens, UniProt P30926+P32297); experiment: Selectivity screen, Nicotinic α3β4; type: binding
[2] = Metabolic stability in liver microsomes, monkey; type: in vitro ADME
Protocol: as §1

anesthetized rats = experiment: Induction of erection in anesthetized rats (intracavernous pressure); type: in vivo, rat
Protocol: FIG. 25: Average spontaneous increases in (A) intracavernous pressure, (B) duration and (C) frequency of these events after infusion of the compound (I) (1 mg/kg) in young (6 week old male Wistar rats) and old (14-16 week old male rats) rats. Results are means±s.e. mean.
FIG. 26: Average rises in number of spontaneous erections measured as intracavernous pressure (ICP) after infusion of, respectively, 0.001 mg/kg, 0.01 mg/kg, 0.1 mg/kg, and 1 mg/kg compound (I) in anesthetized rats (n=4-6).
FIG. 27: Average effect of (A) vehicle (n=5), and compound (I) on mean arterial pressure (MAP) and erectile response measured as peak intracavernous pressure (PICP) over MAP (PICP/MAP) in anesthetized (B) 6 week old male Wistar rats (n=6), and (C) 14-16 week old male rats (n=6). Vehicle and compound (I) were administered after establishing the maximal (10 Hz, 1 ms, 6 V) and submaximal (submax) responses (10 Hz, 1 ms, 0.6-1.55 V) to cavernous nerve stimulation for 30 s. Submaximal stimulation was repeated 3, 13, 23, and 33 min after drug or vehicle administration. Upper traces show the mean arterial pressure (MAP), bars represent the erectile response ((PICP/MAP)·100), where PICP is the peak intracavernous pressure. […]
Compound (I) was administered intravenously to rats in dosages of 0.001, 0.01, 0.1, and 1.0 mg/kg, and the number of spontaneous erections was measured. […]

[3] = Purity and stability study (solution, photo, oxidation, solid state); type: physicochemical
Protocol: A purity and stability study was performed on exo-7-(8-aza-bicyclo[3.2.1]oct-3-yloxy)-chromen-2-one (compound (I)) hydrochloride anhydrate, showing that the compound is chemically and thermodynamically stable as solid and in solution, but sensitive to light when in solution.

CYP 3A4 = CYP 3A4 (Homo sapiens, UniProt P08684); experiment: CYP450 inhibition, cocktail of selective substrates, 3A4; type: in vitro ADME; settings: CYP 3A4, Midazolam to 1′-hydroxymidazolam; read-out: IC50 of compound (I)
Protocol: Compound (I) was tested for CYP450 inhibition using a cocktail of selective substrates. […] This might be addressed later in a clinical study.

[4] = Linearity after single s.c. dose in rat; type: in vivo; settings: for AUC(0-inf) / Cmax / bioavailability / half-life: Wistar, rat; for AUC(0-inf) / Cmax / bioavailability / half-life / Tmax: plasma, sc; for half-life: read-out: T½ (converted); for Tmax: male Wistar rat, 5% Tween 80

Chain of Nicotinic α3β4 (P32297 32-505): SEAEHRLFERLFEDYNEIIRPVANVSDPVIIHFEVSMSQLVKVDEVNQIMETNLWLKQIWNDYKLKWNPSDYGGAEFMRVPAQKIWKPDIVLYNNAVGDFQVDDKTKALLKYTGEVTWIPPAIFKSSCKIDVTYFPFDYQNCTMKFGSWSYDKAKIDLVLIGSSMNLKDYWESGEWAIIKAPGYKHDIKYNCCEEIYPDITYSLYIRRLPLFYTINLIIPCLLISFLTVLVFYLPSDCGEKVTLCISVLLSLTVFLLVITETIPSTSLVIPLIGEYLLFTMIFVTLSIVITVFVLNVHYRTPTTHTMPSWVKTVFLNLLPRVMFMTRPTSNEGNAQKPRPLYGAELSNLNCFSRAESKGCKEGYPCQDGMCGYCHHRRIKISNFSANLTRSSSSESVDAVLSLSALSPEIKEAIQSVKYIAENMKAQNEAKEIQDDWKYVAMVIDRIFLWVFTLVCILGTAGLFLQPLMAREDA
Chain of Nicotinic α3β4 (P30926 22-498): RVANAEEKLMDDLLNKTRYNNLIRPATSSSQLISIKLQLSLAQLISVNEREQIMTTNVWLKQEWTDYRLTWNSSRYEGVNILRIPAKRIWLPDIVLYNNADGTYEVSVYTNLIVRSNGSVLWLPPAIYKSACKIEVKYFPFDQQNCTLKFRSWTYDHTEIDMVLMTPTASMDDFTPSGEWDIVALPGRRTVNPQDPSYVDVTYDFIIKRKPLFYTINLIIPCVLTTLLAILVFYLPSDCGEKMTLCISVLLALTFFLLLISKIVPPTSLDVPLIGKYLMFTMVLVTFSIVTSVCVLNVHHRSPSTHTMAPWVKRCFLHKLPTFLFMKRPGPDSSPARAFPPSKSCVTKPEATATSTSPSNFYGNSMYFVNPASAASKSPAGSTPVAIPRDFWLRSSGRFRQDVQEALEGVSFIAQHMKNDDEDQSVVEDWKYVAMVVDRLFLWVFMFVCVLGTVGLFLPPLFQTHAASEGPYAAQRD
Chain of DAT (Q01959 whole entry): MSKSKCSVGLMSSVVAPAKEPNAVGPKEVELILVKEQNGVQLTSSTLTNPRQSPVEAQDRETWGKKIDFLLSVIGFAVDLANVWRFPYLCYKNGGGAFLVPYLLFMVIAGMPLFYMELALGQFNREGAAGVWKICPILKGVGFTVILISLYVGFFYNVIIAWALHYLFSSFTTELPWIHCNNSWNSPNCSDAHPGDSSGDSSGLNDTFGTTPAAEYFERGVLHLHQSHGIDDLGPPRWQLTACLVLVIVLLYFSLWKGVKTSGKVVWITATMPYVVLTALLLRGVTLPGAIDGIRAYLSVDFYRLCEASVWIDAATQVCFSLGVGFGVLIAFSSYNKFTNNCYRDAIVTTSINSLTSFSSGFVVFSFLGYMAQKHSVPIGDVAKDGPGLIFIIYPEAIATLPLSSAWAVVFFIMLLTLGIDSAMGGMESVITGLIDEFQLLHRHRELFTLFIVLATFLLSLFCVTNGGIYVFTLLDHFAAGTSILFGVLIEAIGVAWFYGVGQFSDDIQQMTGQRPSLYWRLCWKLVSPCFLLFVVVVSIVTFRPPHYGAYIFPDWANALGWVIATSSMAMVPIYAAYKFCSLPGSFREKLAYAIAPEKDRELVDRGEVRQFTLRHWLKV
Chain of 5-HT transporter (P31652 whole entry): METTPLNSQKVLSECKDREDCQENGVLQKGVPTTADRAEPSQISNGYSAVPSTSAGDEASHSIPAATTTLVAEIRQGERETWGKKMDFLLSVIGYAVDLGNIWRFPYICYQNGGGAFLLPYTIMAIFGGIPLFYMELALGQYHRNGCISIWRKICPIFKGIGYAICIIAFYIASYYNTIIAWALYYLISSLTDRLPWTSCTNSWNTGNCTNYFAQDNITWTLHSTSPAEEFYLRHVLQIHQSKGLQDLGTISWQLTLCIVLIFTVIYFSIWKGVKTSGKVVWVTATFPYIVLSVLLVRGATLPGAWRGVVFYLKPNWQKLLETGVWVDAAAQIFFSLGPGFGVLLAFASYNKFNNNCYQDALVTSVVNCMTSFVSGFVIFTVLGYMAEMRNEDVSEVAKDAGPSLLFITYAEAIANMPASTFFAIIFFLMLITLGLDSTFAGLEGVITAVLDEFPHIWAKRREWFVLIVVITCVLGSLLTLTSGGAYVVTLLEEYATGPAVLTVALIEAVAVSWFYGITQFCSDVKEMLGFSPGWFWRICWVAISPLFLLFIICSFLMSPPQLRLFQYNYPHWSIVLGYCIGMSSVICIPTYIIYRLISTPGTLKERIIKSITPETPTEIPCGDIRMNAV
Chain of CYP 3A4 (P08684 whole entry): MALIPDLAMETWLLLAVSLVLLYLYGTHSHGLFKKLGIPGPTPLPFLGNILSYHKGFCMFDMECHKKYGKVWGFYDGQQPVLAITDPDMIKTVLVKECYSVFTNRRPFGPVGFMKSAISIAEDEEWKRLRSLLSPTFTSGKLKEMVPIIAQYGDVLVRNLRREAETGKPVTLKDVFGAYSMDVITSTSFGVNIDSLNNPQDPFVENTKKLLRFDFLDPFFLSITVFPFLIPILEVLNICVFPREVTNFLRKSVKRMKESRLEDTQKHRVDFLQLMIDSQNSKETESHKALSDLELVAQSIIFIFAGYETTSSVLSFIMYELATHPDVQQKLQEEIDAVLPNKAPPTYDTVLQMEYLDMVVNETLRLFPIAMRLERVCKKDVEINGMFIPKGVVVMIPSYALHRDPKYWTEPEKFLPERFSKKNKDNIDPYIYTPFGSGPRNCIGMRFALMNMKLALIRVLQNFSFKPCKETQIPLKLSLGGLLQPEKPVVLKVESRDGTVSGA
Chain of Sigma σ1 (Q99720 whole entry): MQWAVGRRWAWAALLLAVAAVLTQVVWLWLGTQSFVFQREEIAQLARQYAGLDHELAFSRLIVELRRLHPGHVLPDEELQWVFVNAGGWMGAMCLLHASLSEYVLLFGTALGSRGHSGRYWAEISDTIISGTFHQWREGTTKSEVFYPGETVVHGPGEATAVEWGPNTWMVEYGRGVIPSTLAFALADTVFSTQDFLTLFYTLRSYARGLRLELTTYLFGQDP

O=c1ccc2ccc(O[C@@H]3C[C@H]4CC[C@@H](C3)N4)cc2o1 [Compound (I), exo-7-(8-aza-bicyclo[3.2.1]oct-3-yloxy)-chromen-2-one] showed a Ki (DAT) of 155 nM, an inhibition at 10 µM (DAT; DAT, Human, 10 μM) of 97% and an MED (NMRI mice; mFST (NMRI), p.o. 60 min) of 1 mg/kg. The MED (NMRI mice; mFST, 0.03, 0.1, 0.3 mg/kg p.o. −60 min + WAY100635 0.1 mg/kg s.c. −60 min) was 0.1 mg/kg, the MED (NMRI mice; mFST, 1, 3, 10 mg/kg p.o. −60 min + SCH23390 0.00375 mg/kg s.c. −60 min) was 10 mg/kg and the MED (NMRI mice; mFST, 1, 3, 10 mg/kg p.o. −60 min + WAY100635 1 mg/kg s.c. −60 min) was 1 mg/kg. The “Leftward shift in dose-response” value (NMRI mice; mFST, with low dose of WAY100635) was 10 fold, the “Rightward shift in dose-response” value (NMRI mice; mFST, with non-sedative dose of SCH23390) was 10 fold and the “Stability at 1 μM” value [1] was 89%. For the same compound, the “Stability at 5 μM” value [1] was 100%, the IC50 (5-HT transporter) was 0.45 nM and the inhibition at 10 µM (Sigma σ1) was 59%. For the same compound, the Ki (Nicotinic α3β4) was 5050 nM, the “Separation to transporter hDAT” value (Nicotinic α3β4; Nicotinic acetylcholine Ki versus hDAT Ki 155 nM) was “x32” and the “Separation to transporter hNET” value (Nicotinic α3β4; Nicotinic acetylcholine Ki versus hNET Ki 594 nM) was “x8.5”. For the same compound, the inhibition at 10 µM (Nicotinic α3β4; Nicotinic α3β4, Human, 10 μM) was 57%, the “Stability at 1 μM” value [2] was 79% and the “Stability at 5 μM” value [2] was 88%. The Induction of erection (anesthetized rats; 1 mg/kg) was “induce erection in both young and adult rats”, the “Number of spontaneous erections versus dose” value (anesthetized rats; intravenously 0.001, 0.01, 0.1 and 1.0 mg/kg) was “increased with increasing dosage from 0.001 to 0.1 mg/kg, but decreased abruptly at a dose of 1.0 mg/kg” and the “Compound (I), % left after 1 d at 40° C.” value ([3]; Oxidation, 5% H2O2, 0.15 mM) was 83%. The “Compound (I), % left after 3 h at 250 W/m^2” value ([3]; Photostability at pH 7.4) was 11%, the “% left after 26 d at 40° C. 75% rel. humidity in open container” value ([3]; Solid state stability) was 100% and the “Compound (I), % left after 1 d at 40° C.” value ([3]; Stability at pH 1.0, 0.15 mM) was 100%. For the same compound, the “Compound (I), % left after 1 d at 40° C.” value ([3]; Stability at pH 7.4, 0.15 mM) was 100%, the IC50 (CYP 3A4) was > 100000 nM and the AUC(0-inf) ([4]; 1 mg/kg s.c.) was 125 ng·h/mL. The Cmax ([4]; 1 mg/kg s.c.) was 69 ng/mL, the bioavailability ([4]; 1 mg/kg s.c., compared to 10 mg/kg i.v. in same vehicle) was 117% and the half-life ([4]; 1 mg/kg s.c.) was 40.2 min. The Cmax ([4]; 5 mg/kg s.c.) was 320 ng/mL, the bioavailability ([4]; 5 mg/kg s.c., compared to 10 mg/kg i.v. in same vehicle) was 113% and the half-life ([4]; 5 mg/kg s.c.) was 46.2 min. The Cmax ([4]; 10 mg/kg s.c.) was 729 ng/mL, the bioavailability ([4]; 10 mg/kg s.c., compared to 10 mg/kg i.v. in same vehicle) was 108% and the half-life ([4]; 10 mg/kg s.c.) was 40.8 min. It also gave a bioavailability ([4]; s.c. dosing in rats) of ~100%, an AUC(0-inf) ([4]; male, 5 mg/kg s.c.) of 604 ng·h/mL and an AUC(0-inf) ([4]; male, 10 mg/kg s.c.) of 1150 ng·h/mL. It also gave a Tmax ([4]; 1 mg/kg s.c.) of 60 min, a Tmax ([4]; 5 mg/kg s.c.) of 60 min and a Tmax ([4]; 10 mg/kg s.c.) of 30 min. The “Linearity of kinetics (AUC versus dose)” value ([4]; rats s.c., relatively low doses, single dose) was “very nice linear kinetics”.
